Assay [1] deals with osteoblasts. As to the kind of experiment: Osteogenesis assay in osteogenic induction media, von Kossa staining. The format is cell-based, mouse. How it is done: To assess the functional capacity of SB216763-treated osteoblasts, they were treated with osteogenic induction media in vitro. […] A transplantation experiment was then performed to examine the capacity for bone formation using a well-established bone formation assay in vivo. This assay was adapted and eGFP positive cells were used, which were isolated from SB216763-treated Flk1-eGFP osteoblasts (FIG. 2, Part A).
The cells were then subjected to osteogenic induction media. […] Cells was transplanted into nude mice to test ectopic bone formation.

The subject of assay [2] is osteoblasts. As to the kind of experiment: RNA sequencing of SB216763-treated osteoblasts. The format is cell-based, mouse. The source says: The differential expression profiles of SB216763-treated osteoblasts using RNA sequencing was examined. […] These overlapped with 1357 genes identified as low expression when osteoblast vs EC was compared, and a 307-gene cohort with decreased expression in both analyses was identified (FIG. 1, Part G). Gene Ontology (GO) termed these genes enriched for the signal pathway of osteoblastic differentiation and bone development (FIG. 1, Part G). Similarly, 519 genes with increased expression after SB21673 treatment were found (FIG. 1, Part H).
For RNA sequencing, osteoblasts were treated with 10 μM SB216763 for 14 days, and RNA was isolated for library preparation. The sequencing was conducted by the Pathology Research Services at UCLA. Spliced Transcripts Alignment to Reference (STAR) was used for the read alignment. Cufflinks was used to assemble transcripts, estimate their abundances, and assess the differential expression. GO analysis and pathway enrichment of the identified genes were performed.

Assay [3] relates to GFP+CD31+ aortic cells. As to the kind of experiment: Hindlimb ischemia model with GFP+CD31+ aortic cells of treated mice. To be noted: mice transplanted with GFP+CD31+ aortic cells of treated group. The class given is in vivo, mouse. How it is done:
The capacity of GFP+CD31+ aortic cells for vascular repair was examined by using hindlimb ischemia model. […] The murine model of hindlimb ischemia was performed as previously described. A 10 mm long incision of the skin was made towards the medial thigh. The femoral artery was exposed and separated from femoral vein and nerve. Silk sutures were used to tie the proximal and the distal end of femoral artery with double knots. The cells (5×10^5) were transplanted into the surgical area and the incision was closed. Laser Doppler perfusion imaging was used to monitor the blood flow at different time points. Histology and immunostaining were used to examine the vascularization 2 weeks after transplantation.

Where [4] appears, read: 4-fold differential threshold level.

As to `Cn1cc(C2=C(c3ccc(Cl)cc3Cl)C(=O)NC2=O)c2ccccc21` [SB216763], the “mineralization, von Kossa staining” value in assay [1] (SB216763-treated cells after restoring SMAD1 or depletion of β-catenin) is “clear mineralization”. The “mineralization, von Kossa staining” value in assay [1] (SB216763-treated cells in osteogenic induction media) is on record as “lack of mineralization”. In addition, in assay [2] (10 μM for 14 days), the transcript profile entry is “increased the similarities between the treated osteoblasts and ECs”. In assay [2] (setting [4]), the “cohort with decreased expression in both analyses (overlap with osteoblast vs EC low expression genes)” value is given as 307 gene, the “cohort with increased expression in both analyses (overlap with EC vs osteoblast high expression genes)” value is given as 235 genes, the “genes decreased in expression” value amounted to 827 genes and the “genes with increased expression” value was determined as 519 genes. Further, in assay [3], the “limb blood flow, Laser Doppler perfusion imaging” value was “higher limb blood flow” and the “vascular density, histology” value was “increase in vascular density”.

(Values after patent publication US20230285357A1, “COMPOSITIONS AND METHODS FOR […] CELLS” (The Regents of the University of California, priority 2020, published 2023).)
